This note sets out measurements from article PMC10508264, “Exploring the antioxidant, antimicrobial, cytotoxic and biothermodynamic properties of novel morpholine derivative bioactive Mn(II), Co(II) and Ni(II) complexes – combined experimental and theoretical measurements towards DNA/BSA/SARS-CoV-2 3CL^Pro” (RSC Medicinal Chemistry, 2023).

For the assay, the system named is CT-DNA. The assay is described as follows: DNA binding by viscometric (hydrodynamic) technique. The protocol:
The hydrodynamic properties were measured using an Ostwald viscometer with the help of a thermostat (25 ± 0.1 °C). The specific viscosity of DNA was also measured in the presence and absence of the test samples.[13,30]
Generally, when the major/minor groove binding, electrostatic, partial, and non-classical interaction modes are involved between chemical substances and DNA base pairs, the final DNA relative viscosity remains unchanged or undergoes a very negligible change due to reducing the contour length of DNA. When the intercalation binding modes are involved between a chemical substance and DNA base pairs via π–π stacking interactions and hydrophobic forces, an increase in relative viscosity is noted due to a rise in the contour length of DNA. Moreover, for the purpose of observing alterations in the CT-DNA helical structure, the viscosity findings for CT-DNA, various concentrations of chemical substances present, and EtBr were recorded. It was also noted that the absolute viscosity rose consistently along with the incremental concentration of each substance at the fixed DNA concentration. As a result of the strong binding mode of intercalation, the contour length of the double-helix DNA rises.[72] The obtained results are also compared with those of the classical intercalator (EB). The affinity interaction and their slope values were observed from the relative specific viscosity (η/η0)^1/3 plotted as a straight line contrasting [compound]/[DNA] and absolute specific viscosity of DNA in the presence or absence of chemical substances was evaluated using eqn (11) (Table 3). In the experiment, it was clearly noted that the slope values for all samples increased due to the rising binding affinity. The evaluated slopes were in the following sequence: (EB) 1.215 > (2) 0.860 > (3) 0.801 > (1) 0.662 > (HL) 0.490 (Fig. S21 ^† and Table 3). […] Due to the existence of 2,2′-bipyridine and the morpholine-fused aromatic planar systems, compounds can interact with DNA robustly via intercalation. The outcomes agreed with the observed outcomes of electronic absorption spectral characteristics.
11 [drawing 21] where η and η0 represent the specific viscosity of DNA in the presence of the complex and the specific viscosity of DNA alone, t0, tDNA and tcomplex represent the average flow time of the Tris–HCl buffer solution, the average flow time of the DNA alone solution, and the average flow time of DNA interacted with the samples, respectively. Error limit ± 2.5% (P < 0.025). […]
2.2.4. Assessment of DNA affinity by hydrodynamic technique
Hydrodynamic properties were performed using an Ostwald viscometer with the help of a thermostat (25 ± 0.1 °C). The experiment was performed of all samples, including ethidium bromide at various concentrations (20, 40, 60, 80, 100 µM) and each test compound was mixed with the deoxyribonucleic acid solution (100 µM) in the Ostwald viscometer. With a help of digital stopwatch, average flow time was gauged three times for each addition, and the specific viscosity of deoxyribonucleic acid was also measured in the presence and absence of test samples. […]
Also, the emission spectral titration for all compounds was also carried out at a fixed concentration (25 μM) of BSA with an incremental concentration of substances (0–25 µM)

Take `Oc1ccccc1N=Cc1ccc(N2CCOCC2)cc1` [(HL), 2-(4-morpholinobenzylideneamino)phenol]: the “Slope of (η/η0)^1/3 vs [compound]/[DNA]” value is given as 0.490. Also, the “Relative specific viscosity (η/η0)^1/3” value ([complex]/[DNA] = 0.2) came to 0.61. Besides, the “Relative specific viscosity (η/η0)^1/3” value ([complex]/[DNA] = 0.4) is 0.67. Further, where the note is “[complex]/[DNA] = 0.6”, the “Relative specific viscosity (η/η0)^1/3” value came out at 0.75. The “Relative specific viscosity (η/η0)^1/3” value ([complex]/[DNA] = 0.8) is 0.85. Where the note is “[complex]/[DNA] = 1.0”, the “Relative specific viscosity (η/η0)^1/3” value is reported as 1.01.
Turning to `[Mn+2].[O-]c1ccccc1N=Cc1ccc(N2CCOCC2)cc1.[O-]c1ccccc1N=Cc1ccc(N2CCOCC2)cc1.c1ccc(-c2ccccn2)nc1` [(1)], the “Slope of (η/η0)^1/3 vs [compound]/[DNA]” value came out at 0.662. Also, the “Relative specific viscosity (η/η0)^1/3” value ([complex]/[DNA] = 0.2) is given as 0.66. For the same molecule, where the note is “[complex]/[DNA] = 0.4”, the “Relative specific viscosity (η/η0)^1/3” value is 0.78. The “Relative specific viscosity (η/η0)^1/3” value ([complex]/[DNA] = 0.6) stood at 0.88. Besides, where the note is “[complex]/[DNA] = 0.8”, the “Relative specific viscosity (η/η0)^1/3” value stood at 1.02. Moreover, under “[complex]/[DNA] = 1.0”, the “Relative specific viscosity (η/η0)^1/3” value is reported as 1.12.
For `[Ni+2].[O-]c1ccccc1N=Cc1ccc(N2CCOCC2)cc1.[O-]c1ccccc1N=Cc1ccc(N2CCOCC2)cc1.c1ccc(-c2ccccn2)nc1` [(3)], the “Slope of (η/η0)^1/3 vs [compound]/[DNA]” value is 0.801. The “Relative specific viscosity (η/η0)^1/3” value ([complex]/[DNA] = 0.2) amounted to 0.71. Further, the “Relative specific viscosity (η/η0)^1/3” value ([complex]/[DNA] = 0.4) came out at 0.86. Moreover, the “Relative specific viscosity (η/η0)^1/3” value ([complex]/[DNA] = 0.6) is on record as 0.92. For the same molecule, where the note is “[complex]/[DNA] = 0.8”, the “Relative specific viscosity (η/η0)^1/3” value was 1.11. For the same molecule, the “Relative specific viscosity (η/η0)^1/3” value ([complex]/[DNA] = 1.0) is recorded as 1.31.
As for `[Co+2].[O-]c1ccccc1N=Cc1ccc(N2CCOCC2)cc1.[O-]c1ccccc1N=Cc1ccc(N2CCOCC2)cc1.c1ccc(-c2ccccn2)nc1` [(2)], the “Slope of (η/η0)^1/3 vs [compound]/[DNA]” value was determined as 0.860. Moreover, where the note is “[complex]/[DNA] = 0.2”, the “Relative specific viscosity (η/η0)^1/3” value is 0.77. Where the note is “[complex]/[DNA] = 0.4”, the “Relative specific viscosity (η/η0)^1/3” value is reported as 0.88. Also, under “[complex]/[DNA] = 0.6”, the “Relative specific viscosity (η/η0)^1/3” value is on record as 1.05. The “Relative specific viscosity (η/η0)^1/3” value ([complex]/[DNA] = 0.8) worked out at 1.18. Besides, the “Relative specific viscosity (η/η0)^1/3” value ([complex]/[DNA] = 1.0) worked out at 1.48.
